≈ marks a conversion by molar mass, not a printed value. Each block holds one compound with its values, some of them ahead of it. Calls of active or inactive are those of the source. The calls are words filed in the database; no cut-off is given here.
Key:
[1] = system: Staphylococcus aureus; assay: Antibacterial activity against Staphylococcus aureus assessed as reduction in bacterial growth; type: functional
[2] = system: Klebsiella pneumoniae; assay: Antibacterial activity against Klebsiella pneumoniae BAA 1705 assessed as reduction in bacterial growth measured after 18 to 24 hrs by broth microdilution method; type: functional; conditions: time 18-24 hrs
[3] = system: Bacillus subtilis; assay: Antibacterial activity against Bacillus subtilis IITKSM1 assessed as reduction in bacterial growth measured after 18 to 24 hrs by broth microdilution method; type: functional; conditions: time 18-24 hrs
[4] = system: Acinetobacter baumannii; assay: Antibacterial activity against Acinetobacter baumannii BAA 1605 assessed as reduction in bacterial growth measured after 18 to 24 hrs by broth microdilution method; type: functional; conditions: time 18-24 hrs
[5] = system: Staphylococcus aureus; assay: Antibacterial activity against Staphylococcus aureus ATCC 29213 assessed as reduction in bacterial growth measured after 18 to 24 hrs by broth microdilution method; type: functional; conditions: time 18-24 hrs
[6] = system: Enterococcus faecalis; assay: Antibacterial activity against Enterococcus faecalis ATCC 35550 assessed as reduction in bacterial growth measured after 18 to 24 hrs by broth microdilution method; type: functional; conditions: time 18-24 hrs
[7] = system: Escherichia coli; assay: Antibacterial activity against Escherichia coli ATCC 25922 assessed as reduction in bacterial growth measured after 18 to 24 hrs by broth microdilution method; type: functional; conditions: time 18-24 hrs
[8] = system: Pseudomonas aeruginosa; assay: Antibacterial activity against Pseudomonas aeruginosa ATCC 27853 assessed as reduction in bacterial growth measured after 18 to 24 hrs by broth microdilution method; type: functional; conditions: time 18-24 hrs
[9] = system: Staphylococcus aureus; assay: Antibacterial activity against methicillin-resistant Staphylococcus aureus NRS 119 assessed as reduction in bacterial growth measured after 18 to 24 hrs by broth microdilution method; type: functional; conditions: time 18-24 hrs
[10] = system: Staphylococcus aureus; assay: Antibacterial activity against methicillin-resistant Staphylococcus aureus NRS 186 assessed as reduction in bacterial growth measured after 18 to 24 hrs by broth microdilution method; type: functional; conditions: time 18-24 hrs
[11] = system: Staphylococcus aureus; assay: Antibacterial activity against methicillin-resistant Staphylococcus aureus NRS 193 assessed as reduction in bacterial growth measured after 18 to 24 hrs by broth microdilution method; type: functional; conditions: time 18-24 hrs
[12] = system: Staphylococcus aureus; assay: Antibacterial activity against vacomycin-resistant Staphylococcus aureus VRS 4 assessed as reduction in bacterial growth measured after 18 to 24 hrs by broth microdilution method; type: functional; conditions: time 18-24 hrs
[13] = system: Staphylococcus aureus; assay: Antibacterial activity against methicillin-resistant Staphylococcus aureus NRS 192 assessed as reduction in bacterial growth measured after 18 to 24 hrs by broth microdilution method; type: functional; conditions: time 18-24 hrs
[14] = system: Staphylococcus aureus; assay: Antibacterial activity against methicillin-resistant Staphylococcus aureus NRS 129 assessed as reduction in bacterial growth measured after 18 to 24 hrs by broth microdilution method; type: functional; conditions: time 18-24 hrs
[15] = system: Staphylococcus aureus; assay: Antibacterial activity against vacomycin-resistant Staphylococcus aureus VRS 1 assessed as reduction in bacterial growth measured after 18 to 24 hrs by broth microdilution method; type: functional; conditions: time 18-24 hrs
[16] = system: Staphylococcus aureus; assay: Antibacterial activity against methicillin-resistant Staphylococcus aureus NRS 194 assessed as reduction in bacterial growth measured after 18 to 24 hrs by broth microdilution method; type: functional; conditions: time 18-24 hrs
[17] = system: Staphylococcus aureus; assay: Antibacterial activity against methicillin-sensitive Staphylococcus aureus ATCC 29213 assessed as reduction in bacterial growth measured after 18 to 24 hrs by broth microdilution method; type: functional; conditions: time 18-24 hrs
[18] = system: Staphylococcus aureus; assay: Antibacterial activity against vacomycin-resistant Staphylococcus aureus VRS 12 assessed as reduction in bacterial growth measured after 18 to 24 hrs by broth microdilution method; type: functional; conditions: time 18-24 hrs
[19] = system: Staphylococcus aureus; assay: Antibacterial activity against methicillin-resistant Staphylococcus aureus NRS 100 assessed as reduction in bacterial growth measured after 18 to 24 hrs by broth microdilution method; type: functional; conditions: time 18-24 hrs
[20] = system: Staphylococcus aureus; assay: Antibacterial activity against methicillin-resistant Staphylococcus aureus NRS 198 assessed as reduction in bacterial growth measured after 18 to 24 hrs by broth microdilution method; type: functional; conditions: time 18-24 hrs
[21] = system: Staphylococcus aureus; assay: Antibacterial activity against methicillin-resistant Staphylococcus aureus NRS 191 assessed as reduction in bacterial growth measured after 18 to 24 hrs by broth microdilution method; type: functional; conditions: time 18-24 hrs
[22] = system: Staphylococcus aureus; assay: Induction of morphological changes in Staphylococcus aureus ATCC 29213 assessed as cell shrinkage at 10 times MIC measured after 4 hrs by atomic force microscopy based analysis (reference value: 60.170 nanometer); type: functional
[23] = system: Staphylococcus aureus; assay: Inhibition of biofilm in Staphylococcus aureus ATCC 29213 at 2 ug/ml measured after 12 hrs by crystal violet staining based analysis; type: functional, organism-based; conditions: dose 2.0 µg/ml
[24] = system: Staphylococcus aureus; assay: Inhibition of biofilm in Staphylococcus aureus ATCC 29213 at 1 times MIC measured after 12 hrs by crystal violet staining based analysis relative to control; type: functional
[25] = system: Staphylococcus aureus; assay: Inhibition of biofilm in Staphylococcus aureus ATCC 29213 at 2 times MIC measured after 12 hrs by crystal violet staining based analysis relative to control; type: functional
[26] = system: Staphylococcus aureus; assay: Inhibition of biofilm in Staphylococcus aureus ATCC 29213 at 0.5 times MIC measured after 12 hrs by crystal violet staining based analysis relative to control; type: functional

Compound: COc1ccc2c(c[n+]3c4c2ccc2c5c(cc(c24)CC3)OCO5)c1NC(=O)c1csnn1.[Cl-]
MIC [1]: 2 µg/mL

Compound: CC(c1ccccc1)c1cc(C(C)(C)C)cc(C(C)c2ccccc2)c1NC(=O)c1cccc(C(=O)O)c1 (stereo not drawn)
MIC [2]: > 64 µg/mL | MIC [3]: > 64 µg/mL | MIC [4]: > 64 µg/mL | MIC [5]: > 64 µg/mL | MIC [6]: > 64 µg/mL | MIC [7]: > 64 µg/mL | MIC [8]: > 64 µg/mL

Compound: C[C@H]1COc2c(N3CCN(C)CC3)c(F)cc3c(=O)c(C(=O)O)cn1c23 [LEVOFLOXACIN ANHYDROUS]
MIC [9]: 16 µg/mL (≈ 44.3 µM) | MIC [10]: 4 µg/mL (≈ 11.1 µM) | MIC [11]: 32 µg/mL (≈ 88.6 µM) | MIC [12]: > 64 µg/mL | MIC [13]: 8 µg/mL (≈ 22.1 µM) | MIC [14]: 0.25 µg/mL (≈ 0.692 µM) | MIC [15]: 32 µg/mL (≈ 88.6 µM) | MIC [16]: 0.125 µg/mL (≈ 0.346 µM) | MIC [17]: 0.25 µg/mL (≈ 0.692 µM) | MIC [18]: 32 µg/mL (≈ 88.6 µM) | MIC [19]: 0.25 µg/mL (≈ 0.692 µM) | MIC [20]: 32 µg/mL (≈ 88.6 µM) | MIC [21]: 16 µg/mL (≈ 44.3 µM)

Compound: CC1(C)S[C@@H]2[C@H](NC(=O)[C@H](N)c3ccccc3)C(=O)N2[C@H]1C(=O)O [AMPICILLIN]
Activity [22]: 36.075 nm

Compound: O=C(O)c1cccc(C(=O)Nc2c(C(c3ccccc3)c3ccccc3)cc([N+](=O)[O-])cc2C(c2ccccc2)c2ccccc2)c1
MIC [2]: > 64 µg/mL | MIC [3]: 4 µg/mL (≈ 6.47 µM) | MIC [4]: > 64 µg/mL | MIC [5]: 4 µg/mL (≈ 6.47 µM) | MIC [6]: 8 µg/mL (≈ 12.9 µM) | MIC [7]: > 64 µg/mL | MIC [8]: > 64 µg/mL

Compound: O=C(O)c1cccc(C(=O)Nc2c(C(c3ccccc3)c3ccccc3)cc(OC(F)(F)F)cc2C(c2ccccc2)c2ccccc2)c1
MIC [2]: > 64 µg/mL | MIC [3]: 2 µg/mL (≈ 3.04 µM) | MIC [4]: > 64 µg/mL | MIC [5]: 2 µg/mL (≈ 3.04 µM) | MIC [6]: 2 µg/mL (≈ 3.04 µM) | MIC [7]: > 64 µg/mL | MIC [8]: > 64 µg/mL

Compound: C#CCOc1ccccc1-c1ccc(-c2ccc(-c3ccccc3OCc3cn(CC(=O)N[C@@H](CCCNC(=N)N)C(=O)N[C@@H](CCCNC(=N)N)C(=O)N[C@@H](CCCNC(=N)N)C(N)=O)nn3)cc2)cc1
MIC [1]: 3.83 µg/mL (≈ 3.9 µM)

Compound: CC(C)(C)c1cc(C(c2ccc(F)cc2)c2ccc(F)cc2)c(NC(=O)c2cccc(C(=O)O)c2)c(C(c2ccc(F)cc2)c2ccc(F)cc2)c1
MIC [9]: 2 µg/mL (≈ 2.85 µM) | MIC [10]: 2 µg/mL (≈ 2.85 µM) | MIC [2]: > 64 µg/mL | inhibition [23]: Active | MIC [3]: 1 µg/mL (≈ 1.42 µM) | MIC [11]: 2 µg/mL (≈ 2.85 µM) | MIC [12]: 2 µg/mL (≈ 2.85 µM) | MIC [13]: 2 µg/mL (≈ 2.85 µM) | inhibition (INH) [24]: 95% | MIC [4]: > 64 µg/mL | MIC [14]: 2 µg/mL (≈ 2.85 µM) | MIC [15]: 2 µg/mL (≈ 2.85 µM) | MIC [16]: 2 µg/mL (≈ 2.85 µM) | MIC [17]: 2 µg/mL (≈ 2.85 µM) | MIC [5]: 2 µg/mL (≈ 2.85 µM) | MIC [18]: 2 µg/mL (≈ 2.85 µM) | inhibition (INH) [25]: 95% | MIC [6]: 1 µg/mL (≈ 1.42 µM) | inhibition (INH) [26]: >50% | MIC [19]: 2 µg/mL (≈ 2.85 µM) | MIC [7]: > 64 µg/mL | MIC [8]: > 64 µg/mL | MIC [20]: 2 µg/mL (≈ 2.85 µM) | MIC [21]: 2 µg/mL (≈ 2.85 µM)

The next lines start with the values.

MIC [1]: ≥ 2.47 µg/mL
Compound: O=C(Nc1ccccc1)c1cc(Cl)ccc1O

MIC [2]: > 64 µg/mL | MIC [3]: 2 µg/mL (≈ 3.06 µM) | MIC [4]: > 64 µg/mL | MIC [5]: 4 µg/mL (≈ 6.13 µM) | MIC [6]: 2 µg/mL (≈ 3.06 µM) | MIC [7]: > 64 µg/mL | MIC [8]: > 64 µg/mL
Compound: O=C(O)c1cccc(C(=O)Nc2c(C(c3ccccc3)c3ccccc3)cc(Br)cc2C(c2ccccc2)c2ccccc2)c1

MIC [2]: > 64 µg/mL | MIC [3]: 32 µg/mL (≈ 53 µM) | MIC [4]: > 64 µg/mL | MIC [5]: 8 µg/mL (≈ 13.3 µM) | MIC [6]: 64 µg/mL (≈ 106 µM) | MIC [7]: > 64 µg/mL | MIC [8]: > 64 µg/mL
Compound: COc1cc(C(c2ccccc2)c2ccccc2)c(NC(=O)c2cccc(C(=O)O)c2)c(C(c2ccccc2)c2ccccc2)c1

MIC [2]: > 64 µg/mL | MIC [3]: 1 µg/mL (≈ 1.69 µM) | MIC [4]: > 64 µg/mL | MIC [5]: 4 µg/mL (≈ 6.76 µM) | MIC [6]: 2 µg/mL (≈ 3.38 µM) | MIC [7]: > 64 µg/mL | MIC [8]: > 64 µg/mL
Compound: O=C(O)c1cccc(C(=O)Nc2c(C(c3ccccc3)c3ccccc3)cc(F)cc2C(c2ccccc2)c2ccccc2)c1

Source: ChEMBL document CHEMBL6177993, “De Novo 3-(Phenylcarbamoyl) Benzoate Analogues: Efficacy against Multidrug-Resistant S. aureus and Elucidation of the Biodistribution Profile” (J Med Chem, 2025)
